The test system of one data set is pregnant mice. The following applies: mouse, in vivo.
Data set [1] relates to mice being in the 16th to 17th day of their pregnancy. The experiment in a line: Abortion induction in mice in the 3rd trimestre of pregnancy, subcutaneous. Format: in vivo. Conditions: pregnant mice; for ED50: Mus musculus, sc, 16th to 17th day, subcutaneous, abortions within 48 hours, obtained by interpolation, read-out: Approx. ED50 (dose inducing abortion in 50 percent of the animals). Here is the method:
According to one of the test methods /M. J. K. Harper and R. C. Skarnes: Advances in Biosciences 9, 789 /1973// the test material was administered subcutaneously to mice being in the 16th to 17th day of their pregnancy /3rd trimestre/, then the number of abortions ensuing with 48 hours was registered, as well as the live and dead fetuses following the removal of the uterus, and the scars on the placenta.
(§1) Applying the above methods the dose-response relationship was established at PGF2α, and its methyl ester, as well as the compounds of general formula I of the present invention. The number of animals was 5 per dose.

Data set [2] relates to hamsters being in the 4th, 5th, and 6th day of pregnancy. The experiment in a line: Interruption of early pregnancy in hamsters, subcutaneous. Format: in vivo, hamster. Conditions: for ED50: Mesocricetus auratus, sc, hamster, 1st trimestre, treated subcutaneously day 4, 5, 6, autopsy day 8, read-out: Approx. ED50. Here is the method: (§2) Here hamsters being in the 4th, 5th, and 6th day of pregnancy were treated subcutaneously, and following autopsy on the 8th day, the number of intrauterine embryonal implantations, as well as the condition of the ovaria were investigated /N. S. Crossley: Prostaglandins 10, 5 /1975//. Similarly rats were treated on the 4th, 5th, 6th and 7th day of pregnancy, and killed on the 9th day, and the interruption of pregnancy registered at the autopsy /W. Skuballa et al.: J. Med. Chem. […], 443 /1978//.
as §1
(§3) A similar increase in potency could be observed at the treatment of animals being in the 1st trimestre of their pregnancy.
The 50 fold increase in potency compared to that of PGF2α is especially worth mentioning in the case of hamsters, as this test is suitable for the sensitive detection of the abortive effect of a given compound if it has lutheolytic activity.

In data set [3] the test system is rats treated on the 4th, 5th, 6th and 7th day of pregnancy. Kind of data set: Interruption of early pregnancy in rats. Format: in vivo. Conditions: rat, 1st trimestre, treated day 4, 5, 6, 7, killed day 9; read-out: Approx. ED50. As to the method:
as §2, §1, §3

The values below come from patent US4418205A, “16-Amino-18,19,20-trinor-prostaglandin derivatives, and acid addition salts” (priority 1980, dated 1983).

Like-named read-outs stand apart in the source and are kept apart here.

One may read the ED50 as the dose that gives a 50% effect, or the effect in half of the subjects. For the molecule `CCCCC[C@H](O)/C=C/[C@@H]1[C@@H](C/C=C\CCCC(=O)OC)[C@@H](O)C[C@H]1O` [PGF2α -methyl ester, reference compound], the incidence of diarrhoea entry in the data set with pregnant mice (3 mg/kg) is “over 50%”. Also, in data set [1], the ED50 was approximately 10 mg/kg.
On to `CCCCC[C@H](O)/C=C/[C@@H]1[C@@H](C/C=C\CCCC(=O)O)[C@@H](O)C[C@H]1O` [PGF2α, reference compound], for which the median effective dose (ED50) is approximately 0.025 mg/kg in data set [2], approximately 16 mg/kg in data set [1] and approximately 1 mg/kg in data set [3]. For the same molecule, in the data set on pregnant mice (10 mg/kg), the incidence of diarrhoea result is “over 50%”.
In the case of `COC(=O)CCC/C=C\C[C@@H]1[C@@H](/C=C/C(O)[C@@H](N)Cc2ccccc2)[C@H](O)C[C@@H]1O` (single isomer, unassigned) [9α,11α,15/.xi./-Trihydroxy-16/S/-amino-17-phenyl-5-cis,13-trans-18,19,20-trinor-prostadienoic acid methyl ester], the figures for the ED50 in data set [2], in data set [1] and in data set [3] were approximately 0.0005 mg/kg, approximately 1.2 mg/kg and approximately 0.1 mg/kg, respectively. Moreover, the “increase in potency compared to that of PGF2α” value in data set [2] (hamsters) was found to be 50 fold. Besides, the induction of diarrhoea entry in the data set with pregnant mice (3 mg/kg) is “failed to induce diarrhoea”. The “potency compared to PGF2α” value in data set [1] (from ED50 values) is recorded as 13 fold. Besides, in data set [1] (from ED50 values), the “potency compared to PGF2α methyl ester” value turned out to be 8 fold.
